Results: patent US20240108753A1, “NUCLEIC ACID DELIVERY” (NUNTIUS THERAPEUTICS LIMITED, priority 2021, published 2024)

What was measured:
HeLa cells [1] = experiment: DNA (pCl-Luc luciferase plasmid) transfection with peptide dendrimer and lipid; assay type: cell-based, human; settings: 0.25 μg pCl-Luc
Method: Cell Lines, transfection reagents and plasmids. HeLa cells were maintained in RPMI medium with 10% (v/v) FCS and 1% (v/v) P/S in a humidified atmosphere in 5% CO2 and 37° C. The plasmid pCl-Luc was derived from plasmid pCl (Promega, Southampton, UK) with the luciferase gene inserted. Branched PEI (25 kDa) was purchased from Sigma-Aldrich. Lipofectamine 2000 (L2000) and Lipofectin (DOTMA:DOPE, 1:1 (w/w)) were obtained from Invitrogen. PEI, L2000 and lipofectin were used as positive control transfection agents in accordance with the manufacturer's instructions.
Transfection procedure. 24 hours before transfection, HeLa cells were seeded (10,000 cells in 100 μL/well) in 96 well plates in order to reach 70% confluence. Plasmid transfection complexes were formed by mixing the dendrimers (100 μL, from 60 μg to 105 μg, dependent on N/P ratios) with lipofectin (4 μg; 100 μL). These mixtures were incubated with a pCl-Luc (4 μg; 100 μL) at different N/P ratios in OptiMEM for 30 min at 25° C. Transfection control complexes (PEI, Lipofectin or L2000) (total 100 μL in OptiMEM) were mixed with pCl-Luc (4 μg; 100 μL) at the respective manufacturers' recommended concentrations. For transfection in serum-free medium, before overlaying the DNA complexes on the cells, OptiMEM was added to dilute the complexes, so that each complex contained 0.25 μg DNA in a total volume of 100 μL in one well of a 96 well plate. For transfection in serum medium, before overlaying the DNA complexes on the cells, full growth medium was added to dilute the complexes, so that each complex contained 0.25 μg DNA in a total volume of 100 μL in one well of a 96 well plate. After removing complete media from the cells, the complexes were added to the plates. The plates were incubated for 4 hours at 37° C. Then, the transfection solutions were replaced by full growth media for 24 hours before luciferase activity was assayed.
Transgene expression assay. The cells were washed twice with PBS and incubated with reporter lysis buffer (20 μL, Promega) for 20 min at 4° C., then overnight at −80° C. After the cells were defrosted at room temperature, luciferase assay buffer (100 μL, Promega; prepared according to the manufacturer's protocol) was added to each well. The luminescent product was measured by Relative Light Units (RLU) in a FLUOstar Optima luminometer (BMG Labtech).
Protein content determination. The protein content of each cell lysate was determined by mixing the lysate (20 μL) with Bio-Rad Protein Assay Reagent (180 μL, Bio-Rad, Hemel Hempstead, UK). After incubation of 10 min, the absorbance at 590 nm was measured and converted to protein concentration using a BSA standard curve. RLU per mg of protein represented luciferase activity. The ratio of these two values is the activity per protein unit (in RLU/mg).

Neuro2A cells = experiment: as above; assay type: cell-based, mouse; settings: 0.25 μg pCl-Luc
[2] = Hydrodynamic size, polydispersity index and zeta potential of dendrimer, lipid and mRNA complexes; assay type: physicochemical; settings: DOTMA/DOPE w/w 10:1 to mRNA; for Hydrodynamic size: dendrimer, lipid and mRNA complexes
Method: The hydrodynamic size, polydispersity index and Zeta potential was determined for a set of the dendrimers disclosed in Tables 1 and 2.

HeLa cells [3] = experiment: mRNA (eGFP) transfection with peptide dendrimers and DOTMA/DOPE in full growth medium; assay type: cell-based, human; settings: for mRNA transfection efficiency (eGFP), in words: HeLa, full growth medium, DOTMA/DOPE w/w 10:1 to mRNA, relative to G1,2-RL, 3-LR
Method: FIG. 28. mRNA transfection of the peptide dendrimers with lipid system in vitro. […] The mRNA used expressed an eGFP reporter gene. Following a 24 hour transfection, the cells were harvested to assay the eGFP expression. The eGFP expression was normalised with the total amount of protein of each transfection. The gene expression level was calculated by normalising the transfection value of the G1,2-RL, 3-LR, DOTMA/DOPE & mRNA treated cells. 1st, 2nd and 3rd generation dendrimers with varying cores and 1st, 2nd, and 3rd generation peptide motifs can transfect cells with mRNA effectively under the tested conditions.
FIG. 29. mRNA transfection of the peptide dendrimers with lipid system in vitro. HeLa cells were transfected with mRNA alone or mRNA with peptide dendrimers and DOTMA/DOPE (w/w=10:1 to mRNA). The N:P ratio of G1,2-RL,3-LR was at 0.16:1 while the N:P ratios of all other dendrimers at 8:1. The mRNA used expressed an eGFP reporter gene. Following a 24 hour transfection, the cells were harvested to assay the eGFP expression. The eGFP expression was normalised with the total amount of protein of each transfection. The gene expression level was calculated by normalising the transfection value of the G1,2-RL, 3-LR, DOTMA/DOPE & mRNA treated cells. 1st, 2nd and 3rd generation dendrimers with varying cores and 1st, 2nd, and 3rd generation peptide motifs can transfect cells with mRNA effectively under the tested conditions.
The effect on the number of generations of dendrimers on mRNA delivery was studied by transfecting HeLa cells in full growth medium conditions.

mice tissue = experiment: In vivo luciferase mRNA expression assays; settings: intravenous, 6 hours; for luciferase expression in tissues, mRNA delivery: NP 0.15:1, DOTMA/DOPE w/w=10:1 to mRNA
Method: Peptide dendrimers were diluted to a respective concentration and mixed with mRNA for a desired NP ratio such as NP=0.15:1 or 8:1. The solution was incubated in room temperature for 10 mins. Lipid such as DOTMA/DOPE was diluted to a respective concentration and mixed with the dendrimer-mRNA complexes for a desired NP ratio such as NP-4.7:1. The solution was incubated in room temperature for 20 mins. When required, the solution would be further diluted before injection.
All animal procedures conducted in our studies complied with UK laws and were inclusive of ethics approval. Female CD-1 mice (n=39) aged 6-8 weeks left to habituate for 1-week upon their arrival. All mice were weighed, and the formulations were delivered intravenously (100 μl) via the tail vein using 30G insulin syringes (BD biosciences).
All mice were imaged 6 hours post injection. BLI was performed using an IVIS Lumina II (Perkin Elmer) Imaging system. Mice were administered D-luciferin (30 mg/mL, XenoLight, Perkin Elmer) at a dose of 150 mg/kg. Mice were anaesthetised 6 mins after receiving D-luciferin in a chamber with 5% isoflurane and then placed on a heated imaging platform while being maintained on 2.5% isoflurane. Mice were imaged 10 min post administration of D-luciferin with an exposure time set to ensure the signal acquired was within an effective detection range (open filter, binning 8, f-stop 1). Bioluminescence signal was quantified by measuring photon flux (photons/s) in the defined region of interest (ROI) using the Living Image software (Perkin Elmer). Following in vivo whole-body imaging, the mice were euthanised, cardiac blood taken, and the tissues extracted for ex vivo imaging. Here each tissue was placed into individual wells of a 24-well imaging plate (black sided, Eppendorf) containing 0.3 mg/mL D-luciferin in PBS). The imaging plate was placed in the centre of imaging platform (Lumina II system) and signal was measured using the acquisition settings detailed above. Finally, the tissues were placed in storage vials and flash frozen in liquid nitrogen.
Mice were injected with a composition comprising DOTMA/DOPE, mRNA encoding luciferase and either G1,2,3-RL, (FIG. 10, top panel; the “G1,2,3-RL, lipid and mRNA formulation”) or G1,2-RL,3-LR (FIG. 10, bottom panel: the “G1,2,3-RL, lipid and mRNA formulation”). Each formulation was prepared and injected at an NP ratio of 8:1 and 0.15:1. Mice were prepared for detection of luciferase expression post injection.

immune cells = experiment: Immune cell targeting: uptake of labelled mRNA after intravenous injection (flow cytometry); assay type: in vivo, mice
Method: Fifteen 5-7-week-old female CD-1 mice (Charles River UK) were dosed with 1 mg/kg of either mRNA labelled with Alexa Fluor488 only or mRNA labelled with Alexa Fluor488 with NTX1 and DOTMA/DOPE or mRNA labelled with Alexa Fluor488 with G1,2-RL, 3-LR and DOTMA/DOPE or mRNA labelled with Alexa Fluor488 with G1,2-RL, 3-LR and DOTMA/DOPE, respectively, via intravenous injection using a dose volume of 5 ml/kg. Group 1 received vehicle and Group 5 received mRNA alone as controls. Mice in al groups were culled 2 hours post IV administration. At the time of euthanasia, whole blood, spleen, inguinal lymph nodes and femurs were collected from all mice. White Blood Cells (WBC) were obtained from EDTA treated whole blood, spleen, inguinal lymph nodes and bone marrow for flow cytometry analysis. In short, bone marrow (BM) was flushed from femurs, and spleens and lymph nodes were processed to single cell suspensions by passing them through a 70 μm filter. Red blood cells in blood, BM and spleen were lysed before isolated WBCs from all tissues were stained with different antibody panels to identify specific sub-populations of immune cells. The staining was performed in a 96-well plate format before samples were analysed using an ACEA Novocyte 3005 flow cytometer.

Substance | DNA transfection efficiency (luciferase, normalised to D/D), in words (HeLa cells [1]) | DNA transfection efficiency (luciferase, normalised to D/D), in words (Neuro2A cells) | Polydispersity Index (PDI) ([2]; N:P 0.16:1) | Zeta Potential ([2]; N:P 0.16:1) | Polydispersity Index (PDI) ([2]; N:P 8:1) | Zeta Potential ([2]; N:P 8:1) | Hydrodynamic size ([2]; N:P 0.16:1) | Hydrodynamic size ([2]; N:P 8:1) | mRNA transfection efficiency (eGFP), in words (HeLa cells [3]) | also measured
(K)8(KK)4(KK)2KGSC-NH2 [G1,2,3-K] | not as effective as G1,2,3-KL | not as effective as G1,2,3-KL |  |  |  |  |  |  |  | 
(KL)4(KKL)2KGSC-NH2 [G1,2-KL] | higher efficiency than in Neuro2A cells |  |  |  |  |  |  |  |  | 
(KL)8(KKL)4(KKL)2KGSA-NH2 [Ala-G1,2,3-KL] | did not affect the transfection results | did not affect the transfection results |  |  |  |  |  |  |  | 
(KL)8(KKL)4(KKL)2KKLC-NH2 [G0,1,2,3-KL] | did not affect the transfection results | did not affect the transfection results |  |  |  |  |  |  |  | 
(LK)8(KLK)4(KLK)2KGSC-NH2 [G1,2,3-LK] | did not have a significant difference | did not have a significant difference |  |  |  |  |  |  |  | 
(LR)4(KRL)2KRHC-NH2 [RHCG1-RL, 2-LR] |  |  | 0.155 | 41 mV | 0.109 | 46 mV | 117 nm | 206 nm | can transfect cells effectively | targeting mRNA delivery to the spleen and lung compared to G1,2-RL, 3-LR (mice tissue; N:P 0.15:1 or 8:1): higher efficiency than the third generation dendrimer G1,2-RL, 3-LR
(LR)8(KRL)4(KRL)2KGSCGAASSLNIAXRXRRBRRXRRBRXB-NH2 [NTX1] |  |  | 0.13 | 37 mV |  |  | 128 nm |  | more effectively than G1,2-RL, 3-RL | luciferase expression in tissues, mRNA delivery (mice tissue): improves efficiency of mRNA delivery to lung, spleen, and lymph nodes; luciferase expression in tissues, mRNA delivery (mice tissue; listed as NXT1): more effective than G1,2,3-RL and G1,2-RL,3-LR; delivery of mRNA to immune cells (immune cells; blood, 2 hours post-injection): Delivery of mRNA to a wide range of immune cells present in the blood is possible; uptake of mRNA in immune cells (immune cells; bone marrow, 2 hrs post-injection): mediated uptake of mRNA in immune cells present in the bone marrow
(R)2KRHC-NH2 [RHCG1-R] |  |  | 0.123 | 33 mV | 0.566 | 45 mV | 129 nm | 366 nm | can transfect cells effectively | 
(R)4(KR)2KRHC-NH2 [RHCG1,2-R] |  |  | 0.114 | 37 mV | 0.252 | 49 mV | 123 nm | 172 nm | can transfect cells effectively | 
(RL)4(KRL)2KGSC-NH2 [G1,2-RL] | higher transfection efficiency | higher transfection efficiency |  |  |  |  |  |  |  | 
(RR)4(KLL)2KGSC-NH2 [G1-LL, 2-RR] |  |  | 0.124 | 41 mV | 0.087 | 47 mV | 135 nm | 213 nm | can be used to deliver mRNA | mRNA transfection efficiency as share of the improved formulation (DOTMA/DOPE w/w=10:1, N:P=0.16:1) (HeLa cells [3]; DOTMA/DOPE w/w=2:1 to mRNA and N:P=20:1): 10%
(kl)8(kkl)4(kkl)2kgsc-NH2 [D-G1,2,3KL] | did not have any significant impact on transfection | did not have any significant impact on transfection |  |  |  |  |  |  |  | 
